Where two headings read alike, the source gives them in different places.
Columns and labels:
[1] = tested on: MDA-MB-231; assay: Cytotoxicity assay (MTS, 72 h); assay type: cell-based; details: Homo sapiens
[2] = tested on: MDA-MB-453; assay: Cytotoxicity assay (MTS, 72 h); assay type: cell-based, human
[3] = tested on: M14; assay: Cytotoxicity assay (MTS, 72 h); details: Homo sapiens
[4] = tested on: Mia PaCa-2; assay: Cytotoxicity assay (MTS, 72 h); assay type: cell-based; details: Homo sapiens
[5] = tested on: PANC-1; assay: Cytotoxicity assay (MTS, 72 h); assay type: cell-based; details: Homo sapiens
Protocol: Mia PaCa-2 and PANC-1 cells were seeded in 96-well plates at 4000 and 5000 cells per well, respectively.
Cytotoxicity Assay. […] Each experiment consisted of four replicates.

[6] = tested on: A375; assay: Cytotoxicity assay (MTS, 72 h);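 further: compounds tested from 0.1 nM up to 3 µM in four replicate wells, with absorbance read at 490 nm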
[7] = logP; assay type: physicochemical; details: Table 1; method not described
[8] = tested on: MDA-MB-468; assay: Cytotoxicity assay (MTS, 72 h); assay type: cell-based, human; details: Homo sapiens, MDA-MB-468; Table 1; read-out: IC50 (nM) Breast MDA-MB-468
[9] = tested on: RPMI-7951; assay: Cytotoxicity assay (MTS, 72 h); assay type: cell-based; details: Homo sapiens, Table 1, read-out: IC50 (nM) Melanoma RPMI-7951
[10] = MDA-MB-231, read-out: IC50 (nM) Breast Cancer MDA-MB-231, Table 6
[11] = Homo sapiens, MDA-MB-453, Table 6, read-out: IC50 (nM) Breast Cancer MDA-MB-453
[12] = M14, read-out: IC50 (nM) Melanoma Cancer M14
[13] = Table 6, cells printed in μM, read-out: IC50 Pancreatic cancer Mia PaCa-2
[14] = Table 6, cells printed in μM, read-out: IC50 Pancreatic cancer PANC-1
[15] = Homo sapiens, A-375, read-out: IC50 (nM) Melanoma Cancer A375, Table 6
[16] = MDA-MB-231, read-out: IC50 (nM) Breast MDA-MB-231, Table 1
[17] = Homo sapiens, MDA-MB-453, Table 1, read-out: IC50 (nM) Breast MDA-MB-453
[18] = M14, read-out: IC50 (nM) Melanoma M14
[19] = Homo sapiens, A-375, read-out: IC50 (nM) Melanoma A375, Table 1
[20] = MDA-MB-231, read-out: IC50 Breast Cancer MDA-MB-231, Table 6, cells printed in μM
[21] = Homo sapiens, MDA-MB-453, Table 6, cells printed in μM, read-out: IC50 Breast Cancer MDA-MB-453
[22] = M14, read-out: IC50 Melanoma Cancer M14
[23] = Homo sapiens, A-375, read-out: IC50 Melanoma Cancer A375, Table 6, cells printed in μM
[24] = read-out: IC50 (nM) Melanoma Cancer A375, Table 6
[25] = Table 6, read-out: IC50 (nM) Pancreatic cancer Mia PaCa-2
[26] = Table 6, read-out: IC50 (nM) Pancreatic cancer PANC-1

Structure (SMILES) | IC50 [1, 10] [nM] | IC50 [2, 11] [nM] | IC50 [3, 12] [nM] | IC50 [4, 13] [µM] | IC50 [5, 14] [µM] | IC50 [6, 15] [nM] | also measured
COc1ccc2c(c1)NC(=O)CN2c1nc(N2CCCCC2)nc2c1CCC2 [Compound 12f, 7-methoxy-4-(2-(piperidin-1-yl)-6,7-dihydro-5H-cyclopenta[d]pyrimidin-4-yl)-3,4-dihydroquinoxalin-2(1H)-one] | 690 ± 147 | 499 ± 126 | 601 ± 117 | > 1.25 | > 1.25 | ~436 | –
COc1ccc2c(c1)NC(=O)CN2c1nc(C)nc2onc(C)c12 [Compound 5k, 4-(3,6-dimethylisoxazolo[5,4-d]pyrimidin-4-yl)-7-methoxy-3,4-dihydroquinoxalin-2(1H)-one] | – | – | – | – | – | – | IC50 [1, 16]: 9.3 ± 1.6 nM; IC50 [2, 17]: 4.6 ± 1.1 nM; logP [7]: 2.46; IC50 [3, 18]: 6.7 ± 2.2 nM; IC50 [8]: 7.5 ± 1.6 nM; IC50 [9]: 7 ± 2.3 nM; IC50 [6, 19]: 14.3 ± 4.1 nM
COc1ccc2c(c1)NC(=O)CN2c1nc(S(C)(=O)=O)nc2c1CCC2 [Compound 11, 7-methoxy-4-(2-(methylsulfonyl)-6,7-dihydro-5H-cyclopenta[d]pyrimidin-4-yl)-3,4-dihydroquinoxalin-2(1H) one] | 191 ± 32 | 58.8 ± 16.3 | 62.2 ± 10.8 | > 1.25 | > 1.25 | ~84.9 | –
COc1ccc2c(c1)NC(=O)CN2c1nc(Cl)nc2c1CCCC2 [Compound 5o, 4-(2-chloro-5,6,7,8-tetrahydroquinazolin-4-yl)-7-methoxy-3,4-dihydroquinoxalin-2(1H)-one] | – | – | – | – | – | – | IC50 [1, 16]: > 1000 nM; IC50 ([2]; Table 1, read-out: IC50 (nM) Breast MDA-MB-453): 256 ± 59.5 nM; logP [7]: 3.16; IC50 [3, 18]: > 1000 nM; IC50 [8]: > 1000 nM; IC50 [9]: > 1000 nM; IC50 [6, 19]: > 1000 nM
COc1ccc2c(c1)NC(=O)CN2c1nc(N2CCN(C)CC2)nc2c1CCC2 [Compound 12d, 7-methoxy-4-(2-(4-methylpiperazin-1-yl)-6,7-dihydro-5H-cyclopenta[d]pyrimidin-4-yl)-3,4-dihydroquinoxalin-2(1H)-one] | 1860 ± 650 | 416 ± 107 | 574 ± 124 | > 1.25 | > 1.25 | ~543 | –
COc1cc2c(cc1F)N(c1nc(Cl)nc3cccnc13)CC(=O)N2 [Compound 5i, 4-(2-chloropyrido[3,2-d]pyrimidin-4-yl)-6-fluoro-7-methoxy-3,4-dihydroquinoxalin-2(1H)-one] | – | – | – | – | – | – | IC50 [1, 16]: > 1000 nM; IC50 [2, 17]: 693 ± 102 nM; logP [7]: 2.23; IC50 [3, 18]: > 1000 nM; IC50 [8]: 940 ± 300 nM; IC50 [9]: > 1000 nM; IC50 [6, 19]: > 1000 nM
COc1ccc2c(c1)nc(-c1ccc(OC)c(OC)c1OC)n2-c1nc(SC)nc2c1CCC2 [Compound 19, 5-methoxy-1-(2-(methylthio)-6,7-dihydro-5H-cyclopenta[d]pyrimidin-4-yl)-2-(2,3,4-trimethoxyphenyl)-1H-benzo[d]imidazole] | – | – | – | – | > 1.25 | – | IC50 [1, 20]: > 3000 nM; IC50 [2, 21]: > 3000 nM; IC50 [3, 22]: > 3000 nM; IC50 ([4]; Table 6, cell printed in MM, read-out: IC50 Pancreatic cancer Mia PaCa-2): > 1.25 µM; IC50 [6, 23]: > 3000 nM
COc1ccc2c(c1)NC(=O)CN2c1nc(N(C)C)nc2c1CCC2 [Compound 12i, 4-(2-(dimethylamino)-6,7-dihydro-5H-cyclopenta[d]pyrimidin-4-yl)-7-methoxy-3,4-dihydroquinoxalin-2(1H)-one] | 36.9 ± 6.1 | 16.1 ± 4.7 | 21.1 ± 4.1 | > 1.25 | > 1.25 | ~22.6 | IC50 [6, 24]: 22 ± 4.5 nM
COc1ccc2c(c1)NC(=O)CN2c1nc(O)nc2c1CCC2 [Compound 12a, 4-(2-hydroxy-6,7-dihydro-5H-cyclopenta[d]pyrimidin-4-yl)-7-methoxy-3,4-dihydroquinoxalin-2(1H)-one] | 1200 ± 346 | 688 ± 186 | 662 ± 126 | > 1.25 | > 1.25 | ~646 | –
COc1ccc2c(c1)[nH]c(=O)n2-c1nc(SC)nc2c1CCC2 [Compound 18, 5-methoxy-1-(2-(methylthio)-6,7-dihydro-5H-cyclopenta[d]pyrimidin-4-yl)-1H-benzo[d]imidazol-2(3H)-one] | 1340 ± 409 | 2180 ± 861 | 1110 ± 306 | > 1.25 | > 1.25 | 1180 ± 339 | –
Cc1nc2c(c(N3CC(=O)Nc4cc(O)ccc43)n1)CCC2 [Compound 12q, 7-hydroxy-4-(2-methyl-6,7-dihydro-5H-cyclopenta[d]pyrimidin-4-yl)-3,4-dihydroquinoxalin-2(1H)-one] | 25.9 ± 4.9 | 13.5 ± 3.3 | 21.8 ± 4.5 | – | – | ~19 | IC50 [4, 25]: 0.0343 ± 0.0053 µM
COc1ccc2c(c1)NC(=O)CN2c1nc(N2CCCC2)nc2c1CCC2 [Compound 12g, 7-methoxy-4-(2-(pyrrolidin-1-yl)-6,7-dihydro-5H-cyclopenta[d]pyrimidin-4-yl)-3,4-dihydroquinoxalin-2(1H)-one] | 119 ± 20.5 | 98.1 ± 23.3 | 84.7 ± 17.6 | – | – | ~82.1 | IC50 [4, 25]: 0.508 ± 0.0591 µM; IC50 [5, 26]: 0.213 ± 0.0476 µM; IC50 [6, 24]: 82.2 ± 12.9 nM
COc1ccc2c(c1)[nH]c(=O)c(=O)n2-c1nc(S(C)(=O)=O)nc2c1CCC2 [Compound 15, 6-methoxy-1-(2-(methylsulfone)-6,7-dihydro-5H-cyclopenta[d]pyrimidin-4-yl)quinoxaline-2,3(1H,4H)-dione] | – | – | – | – | – | – | IC50 [1, 20]: > 3000 nM; IC50 [2, 21]: > 3000 nM; IC50 [3, 22]: > 3000 nM; IC50 [6, 23]: > 3000 nM
Cc1nc2c(c(-n3c(=O)[nH]c4cc(OC(F)(F)F)ccc43)n1)CCC2 [Compound 18a, 1-(2-methyl-6,7-dihydro-5H-cyclopenta[d]pyrimidin-4-yl)-5-(trifluoromethoxy)-1H-benzo[d]imidazol-2-one] | 919 ± 722 | – | 1080 ± 682 | – | – | 238 ± 126 | IC50 [4, 25]: 0.667 ± 0.652 µM; IC50 [5, 26]: 0.164 ± 0.0982 µM
COc1ccc2c(c1)[nH]c(=O)c(=O)n2-c1nc(SC)nc2c1CCC2 [Compound 14, 6-methoxy-1-(2-(methylthio)-6,7-dihydro-5H-cyclopenta[d]pyrimidin-4-yl)quinoxaline-2,3(1H,4H)-dione] | – | – | – | – | – | – | IC50 [6, 23]: > 3000 nM
COc1ccc2c(c1)[nH]c(=O)c(=O)n2-c1nc(OC)nc2c1CCC2 [Compound 16, 6-methoxy-1-(2-methoxy-6,7-dihydro-5H-cyclopenta[d]pyrimidin-4-yl)quinoxaline-2,3(1H,4H)-dione] | – | – | – | > 1.25 | > 1.25 | – | IC50 [1, 20]: > 3000 nM; IC50 [2, 21]: > 3000 nM; IC50 [3, 22]: > 3000 nM; IC50 [6, 23]: > 3000 nM
Cc1nc2c(c(N3CC(=O)Nc4cc(OC(F)(F)F)ccc43)n1)CCC2 [Compound 12o, 4-(2-methyl-6,7-dihydro-5H-cyclopenta[d]pyrimidin-4-yl)-7-(trifluoromethoxy)-3,4-dihydroquinoxalin-2(1H)-one] | 75.8 ± 13.1 | 34.9 ± 6.4 | 41.9 ± 5.6 | – | – | ~43.1 | IC50 [4, 25]: 0.0835 ± 0.0128 µM; IC50 [5, 26]: 0.0424 ± 0.0085 µM
